Laboratory results as given in US20240139333A1, “2,6-DICHLOROPHENYL ESTER COMPOUNDS AND USE THEREOF” (Fusion Pharmaceuticals Inc., priority 2021, published 2024).

Key:
[1] = Temperature stability study in H2O; type: physicochemical
Protocol: 20° C.: To a 4 mL scintillation vial containing Compound A-E (in respective experiments; 0.8 mg) was added 4 mL of HPLC grade water to create a 0.2 mg/mL solution. 2 mL of this solution was added to a 2 mL HPLC vial and placed in the auto sampler of an HPLC-MS at 20° C. Timed aliquots at time (T)=15, 30, 60, 120, 240 and 480 minutes were taken and analyzed by HPLC-MS using elution method 1 (Table 4).
50° C.: To a 4 mL scintillation vial containing Compound A-E (in respective experiments; 0.8 mg) was added a stir bar followed by 4 mL of HPLC grade water to create a 0.2 mg/mL solution. The vial was capped and allowed to stir in a 50° C. oil bath for 8 hours. Timed aliquots at time (T) =15, 30, 60, 120, 240 and 480 minutes were taken and analyzed by HPLC-MS using elution method 1 (Table 4).

[2] = Comparative active ester reactivity study with HOA nucleophile (benzhydroxamic acid); conditions: Benzhydroxamic Acid 1 eq., 22±2° C.
Protocol: General Experimental Protocol for Comparative Active Ester Reactivity Study with HOPO or HOA Nucleophiles
To a 4 mL scintillation vial containing Compound A-E (in respective experiments; 1 eq.) was added a stir bar followed by 150 μL of HPLC grade acetonitrile. In another 4 mL scintillation vial containing a respective nucleophile (1 eq.) was added 280 μL HPLC grade water. The solutions were combined and allowed to stir at room temperature (22±2° C.) for 4 hours. Timed aliquots at time (T)=15, 30, 60, 120 and 240 minutes were taken and analyzed by HPLC-MS using elution method 1 (Table 1).

[3] = Competitive reactivity study between L-Lysine and HOA nucleophile; conditions: L-Lysine 5 eq. / N-Hydroxy-N-methyl benzamide 1 eq
Protocol: (§1) General Experimental Protocol for Competitive Reactivity Study with L-Lysine and HOPO or HOA Nucleophiles
(§2) To a 4 mL scintillation vial containing Compound A (1 eq.) was added a stir bar followed by 70 μL of HPLC grade acetonitrile followed by a respective HOPO or HOA nucleophile (1 eq). In another 4 mL scintillation vial containing L-Lysine monohydrochloride (5 eq.) was added 130 μL HPLC grade water followed by diisopropylethylamine (5 eq.). The solutions were combined and allowed to stir at room temperature (22±2° C.) for 4 hours. Timed aliquots at time (T)=15, 30, 60, 120 and 240 minutes were taken and analyzed by HPLC-MS using elution method 1 (Table 7)

[4] = Competitive reactivity study between L-Lysine and HOPO nucleophile; conditions: L-Lysine 5 eq. / 1,2-HOPO 1 eq.
Protocol: as §1, §2

| Structure (SMILES) | % Remaining ([1]; 20° C., 15 min) | % Remaining ([1]; 20° C., 30 min) | % Remaining ([1]; 20° C., 60 min) | % Remaining ([1]; 20° C., 120 min) | % Remaining ([1]; 20° C., 240 min) | % Remaining ([1]; 20° C., 480 min) | % Remaining ([1]; 50° C., 15 min) | % Remaining ([1]; 50° C., 30 min) | % Remaining ([1]; 50° C., 60 min) | % Remaining ([1]; 50° C., 120 min) | % Remaining ([1]; 50° C., 240 min) | % Remaining ([1]; 50° C., 480 min) | % Active Ester Remaining ([2]; 15 min) | % Active Ester Remaining ([2]; 30 min) | % Active Ester Remaining ([2]; 60 min) | % Active Ester Remaining ([2]; 120 min) | % Active Ester Remaining ([2]; 240 min) | also measured |
| --- | --- | --- | --- | --- | --- | --- | --- | --- | --- | --- | --- | --- | --- | --- | --- | --- | --- | --- |
| O=C(CCc1cccnc1)Oc1c(F)c(F)cc(F)c1F [Compound C, 2,3,5,6-Tetrafluorophenyl-3-(pyridin-3-yl)propanoate] | 95.77% | 91.82% | 87.38% | 81.04% | 70.85% | 56.62% | 79.21% | 74.51% | 65.73% | 42.50% | 6.78% | 2.35% | 58.86% | 45.60% | 32.39% | 18.88% | 9.26% |  |
| O=C(CCc1cccnc1)Oc1c(Cl)cccc1Cl [Compound A, 2,6-Dichlorophenyl-3-(pyridin-3-yl)propanoate] | 100% | 100% | 100% | 100% | 100% | 100% | 96.12% | 92.86% | 88.94% | 84.24% | 82.50% | 81.87% | 97.05% | 95.97% | 92.36% | 86.65% | 78.07% | % Compound A Remaining ([3]; 15 min): (65.77) %; % Compound A Remaining ([3]; 30 min): (14.83) %; % Compound A Remaining ([3]; 60 min): (1.63) %; % Compound A Remaining ([3]; 120 min): (0) %; % Compound A Remaining ([4]; 15 min): (88.33) %; % Compound A Remaining ([4]; 30 min): (74.52) %; % Compound A Remaining ([4]; 60 min): (28.29) %; % Compound A Remaining ([4]; 120 min): (2.01) %; % Compound A Remaining ([4]; 240 min): (0) % |
